These results are taken from PubChem BioAssay (NCI).

Some test systems named below: UACC-62 melanoma; SF-295 CNS; HCT-15 colon; HCT-116 colon; MOLT-4 leukemia; NCI-H226 lung; DU-145 prostate; MDA-MB-231 breast; SN12C renal; OVCAR-8 ovarian.
Assay in all cases: growth of human tumour cells (NCI), 48 h

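Where inhibition never reached the appropriate level, the endpoint shown equals the highest concentration tested. Otherwise, values were interpolated linearly from a five-concentration, 48-hour dose response in 96-well plates. GI50 marks 50% less growth. TGI marks complete inhibition of growth.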 Some results are limits rather than exact numbers.

`Cn1ccnc1C(=O)/C=C/c1ccc(CC(=O)Nc2cc(F)c(F)c(F)c2)cc1`: the GI50 with UACC-62 melanoma is 2.14 µM; in the assay with SF-295 CNS, 6.63 µM; in the assay on HCT-15 colon it was 1.03 µM; in the assay with HCT-116 colon it was 1.22 µM; in the assay with MOLT-4 leukemia it was 0.84 µM; with NCI-H226 lung, 3.4 µM. Further, the GI50 in the assay with DU-145 prostate is 1.67 µM; in the assay with MDA-MB-231 breast, 4.04 µM; in the assay on SN12C renal, 1.4 µM; in the assay with OVCAR-8 ovarian it was 1.33 µM. For the same compound, the TGI in the assay with UACC-62 melanoma is 9.59 µM; with SF-295 CNS it was above 25 µM; in the assay on HCT-15 colon, 6.58 µM; in the assay with HCT-116 colon, 4.42 µM; in the assay on MOLT-4 leukemia it was 12.1 µM; in the assay with NCI-H226 lung it was 12.3 µM. Also, the TGI was 4.87 µM with DU-145 prostate, above 25 µM with MDA-MB-231 breast, 8.61 µM with SN12C renal and above 25 µM with OVCAR-8 ovarian.
With `O=[N+]([O-])C1(CO)COC2(OC1)c1ccccc1-c1ccccc12`, the TGI in the assay on UACC-62 melanoma was above 100 µM; in the assay on SF-295 CNS, above 100 µM; in the assay on HCT-15 colon it was above 100 µM; with HCT-116 colon it was 88.7 µM; in the assay on MOLT-4 leukemia, above 85.2 µM; with NCI-H226 lung, above 100 µM. For the same compound, the TGI in the assay with DU-145 prostate, in the assay on MDA-MB-231 breast, with SN12C renal and in the assay with OVCAR-8 ovarian was above 100 µM throughout.
In the case of `Nc1cc2ccncc2c2ccccc12`, the GI50 with UACC-62 melanoma is 13.5 µM; with SF-295 CNS it was 10.8 µM; with HCT-15 colon, 11.8 µM; in the assay on HCT-116 colon, 4.85 µM; in the assay with MOLT-4 leukemia it was 5.35 µM; with NCI-H226 lung, 5.75 µM. The GI50 was 13.2 µM with DU-145 prostate, 16.4 µM with MDA-MB-231 breast, 11.4 µM in the assay with SN12C renal and 5.25 µM with OVCAR-8 ovarian. Further, the TGI with UACC-62 melanoma is 38.7 µM; in the assay on SF-295 CNS, 57.4 µM; in the assay with HCT-15 colon it was above 100 µM; in the assay with HCT-116 colon, above 100 µM; in the assay with MOLT-4 leukemia, above 100 µM; with NCI-H226 lung, 73.6 µM. In addition, the TGI in the assay with DU-145 prostate is above 100 µM; in the assay with MDA-MB-231 breast, 96.1 µM; in the assay on SN12C renal, above 100 µM; in the assay on OVCAR-8 ovarian it was above 100 µM.
On to `N#CSc1cc(-c2nc3ccccc3o2)ccc1N`, for which the GI50 in the assay on UACC-62 melanoma is 13.6 µM; in the assay on SF-295 CNS it was 17.1 µM; in the assay on HCT-15 colon, 23.2 µM; in the assay with HCT-116 colon it was 26.5 µM; with MOLT-4 leukemia, 4.09 µM; in the assay on NCI-H226 lung it was 5.23 µM. Besides, the GI50 in the assay with DU-145 prostate was above 67.7 µM; in the assay on MDA-MB-231 breast, above 100 µM; in the assay with SN12C renal, 15.8 µM; in the assay with OVCAR-8 ovarian it was 2.79 µM. In addition, the TGI is 30.8 µM with UACC-62 melanoma; above 74.1 µM with SF-295 CNS; above 100 µM with HCT-15 colon; above 100 µM in the assay on HCT-116 colon; 22.1 µM in the assay on MOLT-4 leukemia; 37.8 µM in the assay with NCI-H226 lung. For the same compound, the TGI in the assay on DU-145 prostate was above 100 µM; in the assay on MDA-MB-231 breast, above 100 µM; in the assay on SN12C renal it was 43.1 µM; in the assay with OVCAR-8 ovarian, above 32.5 µM.
Turning to `COc1ccc2c(c1)/C(=N/OC(C)=O)c1c-2c(Nc2ccc(/C(C)=N/OC(C)=O)cc2)nc2ccccc12`, the GI50 is 25.5 µM in the assay with UACC-62 melanoma; above 100 µM in the assay on SF-295 CNS; 57.5 µM in the assay on HCT-15 colon; 35 µM with HCT-116 colon; 26.1 µM in the assay with MOLT-4 leukemia; above 100 µM in the assay with NCI-H226 lung. Besides, the GI50 in the assay with DU-145 prostate is 43.2 µM; with MDA-MB-231 breast it was above 100 µM; in the assay with SN12C renal it was 69.7 µM; in the assay on OVCAR-8 ovarian, 63.3 µM. Besides, the TGI is 63.8 µM in the assay on UACC-62 melanoma; above 100 µM with SF-295 CNS; above 100 µM in the assay on HCT-15 colon; above 100 µM in the assay on HCT-116 colon; 72.8 µM with MOLT-4 leukemia; above 100 µM with NCI-H226 lung. For the same compound, the TGI with DU-145 prostate, in the assay with MDA-MB-231 breast, with SN12C renal and in the assay with OVCAR-8 ovarian was above 100 µM throughout.
As to `CCN(CC)Cc1cc(Nc2c3ccc(Cl)cc3nc3c(C)cccc23)ccc1O`, the GI50 with UACC-62 melanoma is 1.96 µM; in the assay on SF-295 CNS, 1.78 µM; in the assay on HCT-15 colon it was 1.15 µM; in the assay on HCT-116 colon, 0.982 µM; with MOLT-4 leukemia, 0.855 µM; with NCI-H226 lung, 1.71 µM. Moreover, the GI50 was 2.3 µM with DU-145 prostate, 1.83 µM in the assay with MDA-MB-231 breast, 1.36 µM in the assay on SN12C renal and 1.34 µM in the assay with OVCAR-8 ovarian. For the same compound, the TGI in the assay on UACC-62 melanoma is 3.64 µM; in the assay on SF-295 CNS it was 3.34 µM; in the assay with HCT-15 colon it was 2.87 µM; in the assay with HCT-116 colon it was 2.21 µM; with MOLT-4 leukemia, 10.9 µM; with NCI-H226 lung it was 3.51 µM. Moreover, the TGI with DU-145 prostate stood at 6.99 µM; with MDA-MB-231 breast, 3.81 µM; in the assay with SN12C renal it was 2.92 µM; in the assay with OVCAR-8 ovarian it was 3.45 µM.
On to `CCN(Cc1cccc(C)c1)c1ccc(CO)c(Cl)c1`, for which the GI50 is 0.158 µM with UACC-62 melanoma; 1.51 µM in the assay with SF-295 CNS; 12.1 µM in the assay with HCT-15 colon; 0.203 µM in the assay with HCT-116 colon; 18.5 µM in the assay with MOLT-4 leukemia; 0.121 µM with NCI-H226 lung. For the same compound, the GI50 with DU-145 prostate was 14.8 µM; with MDA-MB-231 breast, 14.1 µM; with SN12C renal it was 12.1 µM; in the assay with OVCAR-8 ovarian it was 12.3 µM. Also, the TGI with UACC-62 melanoma was 1.11 µM; in the assay with SF-295 CNS, 16.4 µM; in the assay on HCT-15 colon, 33.1 µM; with HCT-116 colon it was 10.7 µM; with MOLT-4 leukemia it was above 64.3 µM; with NCI-H226 lung, 0.252 µM. In addition, the TGI in the assay on DU-145 prostate worked out at 28.9 µM; with MDA-MB-231 breast, 30.8 µM; in the assay on SN12C renal, 26.3 µM; in the assay on OVCAR-8 ovarian, 28.3 µM.
